Laboratory results: patent publication US20170035863A1 (UNIVERSITY OF LEEDS, priority 2014, published 2017)

Assays:
[1] = test system: murine tail bleeding model; experiment: Murine tail bleeding time; type: in vivo, C57BL/6 male mice
Source text: (§1) The same animals employed for anticoagulant efficacy were subjected to tail bleeding immediately following the end of the efficacy experiments. Tails were cut with a scalpel at 2 mm diameter using a home-made device for measuring tail diameter. The tails were immediately suspended into lml warmed saline and the time taken to cessation of bleeding monitored (panel A). The collected saline/blood mix at the end of the experiments were frozen and subjected to haemoglobin determination (panel B).
as §1, with “1 ml” for “lml”, “monitored.” for “monitored (panel A). The collected saline/blood mix at the end of the experiments were frozen and subjected to haemoglobin determination (panel B).”

[2] = test system: human normal pool platelet poor plasma; experiment: Activated Partial Thromboplastin Time (aPTT) clotting assay; type: biochemical; details: for Mean aPTT: platelet poor plasma, mean ± SEM
Description: The activated Partial Thromboplastin Time (aPTT) employed was the PTT Automate 5 reagent kit from Stago. The coagulometer (Start 4, Diagnostica Stago, Asnieres sur Seine Cedex, France) was preheated to 37° C. prior to starting any measurements. A sample of human normal pool platelet poor plasma (n=22) was defrosted at 37° C. from −80° C. […] Then 48.5 μL of PTT automate was added to the cuvette and left to incubate for 180 seconds at 37° C. in the coagulometer, after which 50 μL of 25 mM calcium chloride was immediately added to initiate clotting. At the end of the test, the time clotting times were recorded.
This method is known to the person skilled in the art.

thrombin = thrombin (Homo sapiens, UniProt P00734); experiment: Thrombin activity, chromogenic substrate S-2238 (IC50); type: biochemical
Description: Thrombin activity was measured using a chromogenic substrate S-2238 (Quadratec). […] Kinetic readings at 405 nm were monitored every 12 seconds for a total duration of 3 hours at 37° C. Gradients of initial rates were determined and employed to calculate IC50 values using Grafit software.

Molecule | prolongation of bleeding time ([1]; 20 mg/kg, at the end of the experiment) | risk of bleeding ([1]; at doses achieving 50% inhibition of fibrin clot formation) | prolongation of bleeding time ([1]; at the dose required to achieve at least 50% inhibition of fibrin clot formation) | Mean aPTT ([2]; 0.11 nM, 3 min incubation) | Mean aPTT ([2]; 0.44 nM) | Mean aPTT ([2]; 0.88 nM) | Mean aPTT ([2]; 1.75 nM) | Mean aPTT ([2]; 3.50 nM) | Mean aPTT ([2]; 7.00 nM) | Mean aPTT ([2]; 14.00 nM) | Mean aPTT ([2]; 28.00 nM) | Mean aPTT ([2]; 56.00 nM) | Mean aPTT ([2]; 112.00 nM) | Mean aPTT ([2]; 224.00 nM) | Mean aPTT ([2]; 448.00 nM) | potency in aPTT, comparison ([2]; in plasma) | IC50 (thrombin)
CC[C@H](C)[C@H](NC(=O)[C@H](C)NC(=O)[C@H](CCC(=O)O)NC(=O)[C@H](Cc1ccccc1)NC(=O)[C@H](CC(=O)O)NC(=O)[C@H](Cc1ccccc1)NC(=O)[C@@H]1CCCN1C(=O)[C@@H]1CCCN1C(=O)[C@H](C)NC(=O)[C@@H](NC(=O)[C@H](CCCCN)NC(=O)[C@H](Cc1c[nH]cn1)NC(=O)[C@H](CCSC)NC(=O)[C@H](CCCNC(=N)N)NC(=O)[C@@H]1CCCN1C(=O)[C@H](CCC(=O)O)NC(=O)[C@H](C)NC(=O)[C@@H](NC(=O)[C@@H](N)CC(=O)O)C(C)C)[C@@H](C)O)C(=O)N1CCC[C@H]1C(=O)N[C@@H](CCC(=O)O)C(=O)N[C@@H](CCC(=O)O)C(=O)N[C@@H](Cc1ccc(O)cc1)C(=O)N[C@@H](Cc1ccc(OS(=O)(=O)O)cc1)C(=O)N[C@@H](CC(C)C)C(=O)O [SYM-3491-SO3] | ~2 fold | increases risk of bleeding | ~2 fold | 32.03 ± 0.07 s | 32.07 ± 0.03 s | 31.83 ± 0.03 s | 32.20 ± 0.15 s | 32.33 ± 0.07 s | 33.27 ± 0.27 s | 35.33 ± 0.33 s | 38.23 ± 0.48 s | 44.17 ± 0.43 s | 49.87 ± 0.20 s | 60.33 ± 0.17 s | 70.97 ± 0.69 s | slightly less than variegin | 172 ± 6.5 nM
bivalirudin [reference compound] | – | – | – | 32.03 ± 0.35 s | 31.07 ± 0.09 s | 31.20 ± 0.06 s | 31.47 ± 0.37 s | 32.43 ± 0.13 s | 36.30 ± 0.20 s | 40.27 ± 0.60 s | 46.13 ± 1.25 s | 53.97 ± 0.26 s | 63.43 ± 2.32 s | 79.50 ± 0.75 s | 89.77 ± 3.99 s | – | –
